Data on 1 compound can be found in patent publication US4228158A, “Synthetic peptides having pituitary growth hormone releasing activity” (priority 1979, dated 1980).

The structures appear in SMILES notation. Non-standard residues stand in square brackets, D forms with d. Residues, ends and D or L forms follow the SMILES beside them.

This test relates to pituitaries removed from 20 day old female rats. In words: In vitro growth hormone release study (incubated rat pituitaries, GH radioimmunoassay). The class given is cell-based. The conditions noted are these: two pituitaries in 1 ml lactated Ringer's, 36° C., ± SEM. How it is done: Female rats of the CD-1 strain were housed in a constant temperature room at 24° C. with 14 hours light and 10 hours darkness. The rats were fed Purina brand rat chow ab libitum.
All studies were started between 0800 and 1000 hours.
Pituitaries were removed from 20 day old female rats. Two pituitaries were incubated at 36° C. in 1 ml of lactated Ringer's solution in 10 ml polytetrafluoroethylene beakers in a Dubnoff Shaker (90 cycles/min.). The pituitaries were incubated a total of 4 hours (P1, P2, I3, and I4). After two successive one hour preincubation periods (P1, P2), the peptide was added to the incubation medium hourly for 2 hours (I3, I4).
This in vitro study was performed in triplicate and a standard radioimmunoassay of growth hormone present in the incubation medium was performed in duplicate. The hormonal activity was calculated as the difference (Δ) of growth hormone (GH) levels between I3, I4 and P2, i.e., (I3 -P2) and (I4 -P2). P values were calculated by Students' t test using six growth hormone values for each value recorded.
The growth hormone radioimmunoassay reagents were distributed by the National Institute of Arthritis and […] (NIAMDD) program. The growth hormone values were calculated in terms of nanograms (ng) of a rat standard with a growth hormone potency of 0.61 units/mg.

Consider `CSCC[C@H](NC(=O)[C@H](Cc1ccccc1)NC(=O)[C@@H](Cc1c[nH]c2ccccc12)NC(=O)[C@@H](Cc1c[nH]c2ccccc12)NC(=O)[C@@H](N)Cc1ccc(O)cc1)C(N)=O` [H2 N-Tyr-D-Trp-D-Trp-Phe-Met-CONH2] (H-Y[dW][dW]FM-NH2), for which the “In vitro growth hormone release (ΔGH, I3-P2 and I4-P2)” value was 1697 ± 222 ngΔGH/ml incubation medium (1μg peptide, P <0.001); 1530 ± 208 ngΔGH/ml incubation medium (20μg peptide, P <0.001); 219 ± 113 ngΔGH/ml incubation medium (100μg peptide, P ~0.02).
